The source made the active and inactive calls. No cut-off for these calls is given here.
Assays:
[1] = Stability in human liver microsomes assessed as half life preincubated for 5 mins with NADPH followed by compound addition and measured upto 120 mins by LC-MS/MS analysis; type: ADME, Microsome; settings: time < 125 min
[2] = biological target: NACHT, LRR and PYD domains-containing protein 3 (Mus musculus) (UniProt Q8R4B8); test: Inhibition of NLRP3 inflammasome activation in LPS/ATP-induced C57BL/6 mouse BMDMs assessed as reduction in IL-1beta secretion at 200 nM preincubated with LPS for 4 hrs followed by compound addition for 30 mins and further stimulated with ATP for 30 mins by ELISA relative to control; type: cell-based; settings: BMDM, time 1.0 hrs
NACHT, LRR and PYD domains-containing protein 3 (Mus musculus), sequence (Q8R4B8 whole entry, the tested form may be a part): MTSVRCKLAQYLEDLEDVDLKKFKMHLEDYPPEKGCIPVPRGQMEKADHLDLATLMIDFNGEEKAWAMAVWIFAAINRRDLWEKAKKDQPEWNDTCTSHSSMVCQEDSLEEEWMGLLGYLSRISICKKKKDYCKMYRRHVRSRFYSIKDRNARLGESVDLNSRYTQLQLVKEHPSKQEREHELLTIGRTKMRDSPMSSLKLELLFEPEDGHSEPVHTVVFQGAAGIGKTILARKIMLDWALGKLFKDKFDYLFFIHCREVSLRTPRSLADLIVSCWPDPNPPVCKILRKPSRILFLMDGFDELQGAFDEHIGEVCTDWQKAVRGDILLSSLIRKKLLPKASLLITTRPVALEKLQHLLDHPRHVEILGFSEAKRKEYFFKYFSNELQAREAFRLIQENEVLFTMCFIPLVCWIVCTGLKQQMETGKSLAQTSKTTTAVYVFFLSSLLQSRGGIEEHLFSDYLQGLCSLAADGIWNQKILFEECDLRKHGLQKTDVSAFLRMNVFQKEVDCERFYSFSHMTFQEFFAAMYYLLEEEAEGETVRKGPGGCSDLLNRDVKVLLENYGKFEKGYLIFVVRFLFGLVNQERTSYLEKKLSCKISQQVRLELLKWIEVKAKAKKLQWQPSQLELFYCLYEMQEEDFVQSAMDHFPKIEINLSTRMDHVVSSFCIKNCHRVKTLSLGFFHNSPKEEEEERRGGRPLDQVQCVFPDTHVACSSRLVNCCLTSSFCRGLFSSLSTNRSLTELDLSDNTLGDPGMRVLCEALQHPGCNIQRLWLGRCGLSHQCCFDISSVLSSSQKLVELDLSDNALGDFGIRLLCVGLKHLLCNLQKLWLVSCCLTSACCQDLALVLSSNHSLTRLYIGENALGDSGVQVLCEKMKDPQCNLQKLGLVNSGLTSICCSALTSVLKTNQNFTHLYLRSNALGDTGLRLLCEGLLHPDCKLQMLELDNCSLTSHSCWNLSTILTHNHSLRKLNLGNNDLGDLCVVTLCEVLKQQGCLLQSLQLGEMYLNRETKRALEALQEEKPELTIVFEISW

[3] = Oral bioavailability in ICR mouse at 10 mg/kg measured upto 24 hrs by LC-MS/MS method; type: ADME, organism-based; settings: ICR, in vivo
[4] = Half-life in ICR mouse at 1 mg/kg, iv measured upto 24 hrs by LC-MS/MS method; type: ADME, organism-based; settings: in vivo
[5] = biological target: NACHT, LRR and PYD domains-containing protein 3 (Mus musculus) (UniProt Q8R4B8); test: Inhibition of NLRP3 inflammasome activation in LPS/ATP-induced C57BL/6 mouse BMDMs assessed as reduction in IL-1beta secretion at 100 nM preincubated with LPS for 4 hrs followed by compound addition for 30 mins and further stimulated with ATP for 30 mins by ELISA relative to control; type: cell-based; settings: BMDM, time 1.0 hrs
[6] = Half-life in ICR mouse at 10 mg/kg, po measured upto 24 hrs by LC-MS/MS method; type: ADME, organism-based; settings: in vivo
[7] = Clearance in ICR mouse at 1 mg/kg, iv measured upto 24 hrs by LC-MS/MS method; type: ADME, organism-based; settings: in vivo
[8] = biological target: NACHT, LRR and PYD domains-containing protein 3 (Mus musculus) (UniProt Q8R4B8); test: Inhibition of NLRP3 inflammasome activation in LPS/ATP-induced C57BL/6 mouse BMDMs assessed as reduction in IL-1beta secretion at 500 nM preincubated with LPS for 4 hrs followed by compound addition for 30 mins and further stimulated with ATP for 30 mins by ELISA relative to control; type: cell-based; settings: BMDM, time 1.0 hrs
[9] = Stability in mouse liver microsomes assessed as half life preincubated for 5 mins with NADPH followed by compound addition and measured upto 120 mins by LC-MS/MS analysis; type: ADME, Microsome; settings: time < 125 min
[10] = Cmax in ICR mouse at 10 mg/kg, po measured upto 24 hrs by LC-MS/MS method; type: ADME, organism-based; settings: in vivo
[11] = biological target: T1, NACHT, LRR and PYD domains-containing protein 3 (Mus musculus, UniProt Q8R4B8); test: Inhibition of NLRP3 inflammasome activation in LPS/ATP-induced C57BL/6 mouse BMDMs assessed as reduction in IL-1beta secretion preincubated with LPS for 4 hrs followed by compound addition for 30 mins and further stimulated with ATP for 30 mins by ELISA; type: cell-based, BMDM
T1 sequence (Q8R4B8 whole entry, the tested form may be a part): as above

[12] = Stability in mouse plasma assessed as half life measured upto 8 hrs; type: ADME, cell-free
[13] = biological target: Voltage-gated inwardly rectifying potassium channel KCNH2 (Homo sapiens, UniProt Q12809); test: Inhibition of human ERG expressed in CHO cells; type: toxicity, cell-based
Voltage-gated inwardly rectifying potassium channel KCNH2, sequence (Q12809 whole entry): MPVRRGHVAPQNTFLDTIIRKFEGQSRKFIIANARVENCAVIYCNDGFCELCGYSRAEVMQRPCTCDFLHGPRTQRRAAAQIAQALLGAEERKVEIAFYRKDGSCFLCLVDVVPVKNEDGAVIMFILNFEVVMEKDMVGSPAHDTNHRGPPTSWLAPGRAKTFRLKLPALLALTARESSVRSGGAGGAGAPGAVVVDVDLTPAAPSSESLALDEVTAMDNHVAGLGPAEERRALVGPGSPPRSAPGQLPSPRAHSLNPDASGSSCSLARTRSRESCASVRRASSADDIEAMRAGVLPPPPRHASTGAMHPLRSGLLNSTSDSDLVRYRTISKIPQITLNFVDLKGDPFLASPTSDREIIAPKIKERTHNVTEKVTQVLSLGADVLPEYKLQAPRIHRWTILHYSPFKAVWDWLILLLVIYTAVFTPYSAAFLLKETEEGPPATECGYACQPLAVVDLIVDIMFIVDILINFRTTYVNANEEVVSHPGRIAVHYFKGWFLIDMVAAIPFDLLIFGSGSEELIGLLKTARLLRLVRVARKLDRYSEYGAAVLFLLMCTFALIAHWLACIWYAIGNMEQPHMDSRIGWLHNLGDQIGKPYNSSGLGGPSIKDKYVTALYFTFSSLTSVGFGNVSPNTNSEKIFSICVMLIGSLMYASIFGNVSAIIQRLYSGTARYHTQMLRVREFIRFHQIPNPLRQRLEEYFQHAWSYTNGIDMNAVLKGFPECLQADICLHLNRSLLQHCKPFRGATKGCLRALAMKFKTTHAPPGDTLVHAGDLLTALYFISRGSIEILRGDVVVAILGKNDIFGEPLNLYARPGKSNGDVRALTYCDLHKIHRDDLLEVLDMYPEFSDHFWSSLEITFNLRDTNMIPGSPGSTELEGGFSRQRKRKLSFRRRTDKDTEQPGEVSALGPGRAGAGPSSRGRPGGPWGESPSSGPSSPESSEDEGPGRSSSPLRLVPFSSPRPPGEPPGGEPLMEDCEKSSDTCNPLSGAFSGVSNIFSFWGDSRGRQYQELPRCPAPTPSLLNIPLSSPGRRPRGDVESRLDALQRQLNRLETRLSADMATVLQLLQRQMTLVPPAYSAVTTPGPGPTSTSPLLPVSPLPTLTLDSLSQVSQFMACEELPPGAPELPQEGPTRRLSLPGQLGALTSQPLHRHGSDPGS

[14] = Stability in rat plasma assessed as half life measured upto 8 hrs; type: ADME, cell-free
[15] = Stability in rat liver microsomes assessed as half life preincubated for 5 mins with NADPH followed by compound addition and measured upto 120 mins by LC-MS/MS analysis; type: ADME, Microsome; settings: time < 125 min
[16] = AUC in ICR mouse at 1 mg/kg, iv measured upto 24 hrs by LC-MS/MS method; type: ADME, organism-based; settings: ICR, in vivo
[17] = Stability in human plasma assessed as half life measured upto 8 hrs; type: ADME, cell-free
[18] = AUC in ICR mouse at 10 mg/kg, po measured upto 24 hrs by LC-MS/MS method; type: ADME, organism-based; settings: ICR, in vivo
hERG (KCNH2) = hERG (KCNH2) (Homo sapiens, UniProt Q12809); test: Inhibition of human ERG expressed in CHO cells at 40 uM relative to control; type: toxicity, cell-based; settings: CHO cells that express human ERG
hERG (KCNH2), sequence (Q12809 whole entry): as above

Mus musculus = test: Antiinflammatory activity in MSU-induced C57BL/6 mouse model of arthritis assessed as reduction in inflammatory cell infiltration at 12.5 mg/kg, iv measured after 24 hrs; type: functional, organism-based
[19] = biological target: NACHT, LRR and PYD domains-containing protein 3 (Mus musculus) (UniProt Q8R4B8); settings: BMDM, dose 10.0 nM, time 1.0 hrs
[20] = Selectivity index, ratio of CC50 for cytotoxicity against C57BL/6 mouse BMDMs to IC50 for inhibition of NLRP3 inflammasome activation in C57BL/6 mouse BMDMs; type: toxicity; settings: bone marrow-derived macrophages (BMDMs), read-out: Ratio CC50/IC50
[21] = biological target: T1, NACHT, LRR and PYD domains-containing protein 3; test: Inhibition of NLRP3 inflammasome activation in mouse J774.A1 cells; type: cell-based

Row | SMILES | inhibition [2] [%] | inhibition [5] [%] | inhibition [8] [%] | IC50 [11] [nM] | also measured
1 | CC(C)(O)c1coc(S(=O)(=O)NC(=O)Nc2c3c(cc4c2CCC4)CCC3)c1 | – | – | – | – | Activity (Mus musculus): Active; inhibition [19]: 80.5%
2 | C=C1C(=O)[C@]23[C@H](O)[C@H]1CC[C@H]2[C@]12C=CCC(C)(C)[C@H]1[C@H](O)[C@@]3(OCCC(=O)N1CCOCC1)OC2 | 83.9 | 62.7 | 95.1 | 72.2 | selectivity ratio [20]: 30.2
3 | C=C1C(=O)[C@]23[C@H](O)[C@H]1CC[C@H]2[C@]12C=CCC(C)(C)[C@H]1[C@H](O)[C@@]3(OCCC(=O)NC1CCCC1)OC2 | 56 | 42.3 | 84.7 | 137 | –
4 | C=C1C(=O)[C@]23[C@H](O)[C@H]1CC[C@H]2[C@]12C=CCC(C)(C)[C@H]1[C@H](O)[C@@]3(OCCC(=O)N(CCC)CCC)OC2 | 67.4 | 25.4 | 71.6 | 178 | –
5 | C=C1C(=O)[C@]23[C@H](O)[C@H]1CC[C@H]2[C@]12C=CCC(C)(C)[C@H]1[C@H](O)[C@@]3(OCCC(=O)N1CCCCC1)OC2 | 52.4 | 43.7 | 82.1 | 147 | –
6 | C=C1C(=O)[C@]23[C@H](O)[C@H]1CC[C@H]2[C@]12C=CCC(C)(C)[C@H]1[C@H](O)[C@@]3(OCCC(=O)NC1CCCCC1)OC2 | 40.6 | 36.5 | 74.1 | 194 | –
7 | C=C1C(=O)[C@]23[C@H](O)[C@H]1CC[C@H]2[C@]12C=CCC(C)(C)[C@H]1[C@H](O)[C@@]3(OCCC(=O)N1CCCC1)OC2 | 55.9 | 36.4 | 79.1 | 161 | –
8 | CC(C)n1ccc(S(=O)(=O)NC(=O)Nc2c3c(cc4c2CCC4)CCC3)n1 [INZOMELID] | – | – | – | 14 | inhibition [19]: 42.7%
9 | CS(=O)(=O)/C=C/C#N | – | – | – | – | IC50 [21]: 100 nM
10 | C=C1C(=O)[C@]23[C@H](O)[C@H]1CC[C@H]2[C@]12C=CCC(C)(C)[C@H]1[C@H](O)[C@@]3(OCCC(=O)NC1CCOCC1)OC2 | 36.4 | 18.5 | 66.2 | 292 | –
11 | COc1cc(N)c(Cl)cc1C(=O)NC1CCN(CCCOc2ccc(F)cc2)CC1OC (stereo not given) [CISAPRIDE] | – | – | – | – | inhibition at 40 µM (hERG (KCNH2)): 98.7%

Second part, led by results:

Row | inhibition [2] [%] | inhibition [5] [%] | inhibition [8] [%] | IC50 [11] [nM] | SMILES | also measured
12 | 93.9 | 77.3 | 97.3 | 50.2 | C=C1C(=O)[C@]23[C@H](O)[C@H]1CC[C@H]2[C@]12C=CCC(C)(C)[C@H]1[C@H](O)[C@@]3(OCc1cncs1)OC2 | half-life [1]: 4.22 min; bioavailability [3]: 0.64%; half-life [4]: 1.5 h; half-life [6]: 1.36 h; clearance [7]: 49.1 mL/min/kg; half-life [9]: 3.13 min; Cmax [10]: 11.4 ng/mL; half-life [12]: 1.9 h; IC50 [13]: > 40000 nM; half-life [14]: 1.74 h; half-life [15]: 5.56 min; AUC at 24 h [16]: 337 ng·h/mL; half-life [17]: 5.99 h; AUC at 24 h [18]: 10.8 ng·h/mL; inhibition at 40 µM (hERG (KCNH2)): 43.3%
13 | 59.9 | 40.7 | 79.1 | 137 | C=C1C(=O)[C@]23[C@H](O)[C@H]1CC[C@H]2[C@]12C=CCC(C)(C)[C@H]1[C@H](O)[C@@]3(OCCC(=O)NCC(C)C)OC2 | –
14 | 25.5 | 12.9 | 55.4 | 406 | C=C1C(=O)[C@]23[C@H](O)[C@H]1CC[C@H]2[C@]12C=CCC(C)(C)[C@H]1[C@H](O)[C@@]3(OCC(=O)O)OC2 | –
15 | 63.6 | 56.2 | 84.8 | 90.6 | C=C1C(=O)[C@]23[C@H](O)[C@H]1CC[C@H]2[C@]12C=CCC(C)(C)[C@H]1[C@H](O)[C@@]3(OCCC(=O)NC(C)C)OC2 | –
16 | 38 | 33.3 | 65.1 | 242 | C=C1C(=O)[C@]23[C@H](O)[C@H]1CC[C@H]2[C@]12C=CCC(C)(C)[C@H]1[C@H](O)[C@@]3(OCCC(=O)NC1CC1)OC2 | –
17 | 47.2 | 20.3 | 60 | 283 | C=C1C(=O)[C@]23[C@H](O)[C@H]1CC[C@H]2[C@]12C=CCC(C)(C)[C@H]1[C@H](O)[C@@]3(OCCC(=O)NCCC)OC2 | –
18 | 44.5 | 24.5 | 68.4 | 232 | C=C1C(=O)[C@]23[C@H](O)[C@H]1CC[C@H]2[C@]12C=CCC(C)(C)[C@H]1[C@H](O)C3(OCc1cccnc1)OC2 (single isomer, unassigned) | –
19 | 62.1 | 52.6 | 93.7 | 102 | C=CCNC(=O)CCO[C@@]12OC[C@]3(C=CCC(C)(C)[C@H]3[C@@H]1O)[C@@H]1CC[C@H]3C(=C)C(=O)[C@]12[C@@H]3O | –
20 | 79.6 | 60.9 | 93.9 | 80.5 | C=C1C(=O)[C@]23[C@H](O)[C@H]1CC[C@H]2[C@]12C=CCC(C)(C)[C@H]1[C@H](O)[C@@]3(OCc1nc(-c3ccccc3)cs1)OC2 | –
21 | 83 | 50.6 | 89.5 | 99.3 | C=C1C(=O)[C@]23[C@H](O)[C@H]1CC[C@H]2[C@]12C=CCC(C)(C)[C@H]1[C@H](O)[C@@]3(OCc1cnco1)OC2 | –
22 | 56 | 47.3 | 77.3 | 100 | C=C1C(=O)[C@]23[C@H](O)[C@H]1CC[C@H]2[C@]12C=CCC(C)(C)[C@H]1[C@H](O)[C@@]3(OCc1ccncc1)OC2 | –
23 | 78.2 | 56.7 | 89 | 103 | C=C1C(=O)[C@]23[C@H](O)[C@H]1CC[C@H]2[C@]12C=CCC(C)(C)[C@H]1[C@H](O)[C@@]3(OCCC(=O)N(C)C)OC2 | –
24 | 49 | 18 | 69.9 | 286 | C=C1C(=O)[C@]23[C@H](O)[C@H]1CC[C@H]2[C@]12C=CCC(C)(C)[C@H]1[C@H](O)[C@@]3(OCCC(=O)NCCOC)OC2 | –
25 | 78.8 | 44.2 | 96.5 | 97.1 | C=C1C(=O)[C@]23[C@H](O)[C@H]1CC[C@H]2[C@]12C=CCC(C)(C)[C@H]1[C@H](O)[C@@]3(OCc1cocn1)OC2 | –
26 | 68.7 | 57.1 | 83 | 81.7 | C=C1C(=O)[C@]23[C@H](O)[C@H]1CC[C@H]2[C@]12C=CCC(C)(C)[C@H]1[C@H](O)[C@@]3(OCCCC(=O)O)OC2 | –

Source: ChEMBL document CHEMBL5506055, “Hit-to-Lead Optimization of the Natural Product Oridonin as Novel NLRP3 Inflammasome Inhibitors with Potent Anti-Inflammation Activity” (J Med Chem, 2024)
